Results taken from patent publication US20240076279A1, “NOVEL BENZOAZEPINE COMPOUND, AND COMPOSITION AND USE THEREOF” (XUZHOU MEDICAL UNIVERSITY, priority 2021, published 2024).

Legend:
human V2R = human V2R (Homo sapiens, UniProt P30518); settings: for residence time: read-out: RT (residence time of the compound to be tested on cells); for koff: read-out: koff (dissociation constant between the compound to be tested and cells); for kon: read-out: kon (association constant between the compound to be tested and cells)
Sequence of human V2R (P30518 whole entry): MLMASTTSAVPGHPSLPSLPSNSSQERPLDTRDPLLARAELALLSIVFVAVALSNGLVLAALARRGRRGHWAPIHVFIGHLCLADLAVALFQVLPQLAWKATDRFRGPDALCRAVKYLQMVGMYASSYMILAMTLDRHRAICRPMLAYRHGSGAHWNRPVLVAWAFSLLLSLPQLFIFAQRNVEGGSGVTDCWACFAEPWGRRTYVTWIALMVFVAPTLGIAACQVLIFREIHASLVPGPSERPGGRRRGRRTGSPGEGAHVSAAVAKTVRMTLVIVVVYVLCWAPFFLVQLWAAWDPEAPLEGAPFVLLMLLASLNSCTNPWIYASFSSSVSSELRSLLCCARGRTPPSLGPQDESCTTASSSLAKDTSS

MDCK cells = experiment: PKD vesicle experiment (forskolin-induced vesicles of MDCK cells in matrigel); assay type: cell-based; settings: 10 μM Forsklin, day 12
Procedure: The vesicles similar to those in PKD disease are formed by using MDCK cells under the action of AC enzyme agonist forskolin to simulate the occurrence and development of the disease, and the test compounds are respectively administered to observe their effects on the vesicles.
The MDCK cells were cultured at 37° C./5% CO2, with DMEM F12 medium (purchased from Combio technology company) supplemented with 10% fetal bovine serum and 1% double antibody.
During the re-cooling of matrigel, MDCK cells were digested and counted. […] The cells were incubated for 12 days, in which the medium was changed every 12 h, and photos were taken at days 4, 6, 8, 10, and 12. The photo area was selected to track the specific vesicles.
The diameters of vesicles were compared on day 12 to assess the effect of test compounds.

PKD1 knockout mice = experiment: PKD mouse experiment; assay type: in vivo; settings: 2 mg/kg subcutaneous injection, seven days of administration
Excerpt: Such compounds have antagonistic effects on arginine vasopressin receptors, and can inhibit the effect of cAMP in vivo, thereby inhibiting the occurrence and development of PKD. In this experiment, PKD1 knockout mice were used to evaluate the efficacy of these compounds.
1. Numbering the mice to perform gene identification: After 3 days of birth, the mice were marked by the method of cutting toes. The cut toes were placed in EP tubes marked in advance to boil, and then the genes were identified by agarose electrophoresis after PCR.
2. Preparation of corresponding medicaments: The corresponding weights of drugs were precisely weighed with an electronic balance and placed in new EP tubes. Then the corresponding amounts of HPMC were added with a pipette to prepare the medicaments of the desired concentration.
3. Administration to mice: The administrations of medicaments to mice was started on Day 6 or 5 after birth (the underweight mice were administered with medicaments on Day 6, and the rest of mice were administered with medicaments on Day 5), and the administration time was fixed (for example, 9:00 am). […]
5. Data processing: The total weight of the left and right kidneys, and the proportion of the kidneys, etc. were calculated.

ADPKD patients = settings: cited from earlier work

Row | Structure (SMILES) | Ki (human V2R) [nM] | residence time (human V2R) [min] | koff (human V2R) [s⁻¹] | kon (human V2R) [M⁻¹ s⁻¹] | The diameter of vesicles (MDCK cells) [μm] | Proportion of the kidneys % (PKD1 knockout mice) [%] | affinity to V2R compared with Tolvaptan (human V2R; text summary of Table 7) | serum hepatic transaminases (ADPKD patients; clinical trials, some patients) | excretion rate of sodium and urea (ADPKD patients; prospective study, 30 ADPKD patients, after administration) | residence time with receptor compared with Tolvaptan (human V2R; text summary of Table 7)
1 | Cc1ccccc1C(=O)Nc1ccc(C(=O)N2CCCC(NCCCCCOc3ccccc3)c3cc(Cl)ccc32)c(C)c1 (stereo not drawn) [Compound 24, N-(4-(7-chloro-5-((5-phenoxypentyl)amino)-2,3,4,5-tetrahydro-1H-benzo[b]azepine-1-carbonyl)-3-methylphenyl)-2-methylbenzamide] | 31 ± 7 | 7 ± 1 | 0.0025 | 183000 |  |  |  |  |  | 
2 | Cc1ccccc1C(=O)Nc1ccc(C(=O)N2CCCC(NCCCN3CCOCC3)c3cc(Cl)ccc32)c(C)c1 (stereo not drawn) [Compound 1, N-(4-(7-chloro-5-((3-morpholinopropyl)amino)-2,3,4,5-tetrahydro-1H-benzo[b]azepine-1-carbonyl)-3-methylphenyl)-2-methylbenzamide] |  |  |  |  | 172.0 | 11.85 |  |  |  | 
3 | Cc1ccccc1C(=O)Nc1ccc(C(=O)N2CCCC(NCCOc3ccccc3)c3cc(Cl)ccc32)c(C)c1 (stereo not drawn) [Compound 21, N-(4-(7-chloro-5-((2-phenoxyethyl)amino)-2,3,4,5-tetrahydro-1H-benzo[b]azepine-1-carbonyl)-3-methylphenyl)-2-methylbenzamide] | 77 ± 26 | 17 ± 2 | 0.001 | 18300 |  |  |  |  |  | 
4 | Cc1ccccc1C(=O)Nc1ccc(C(=O)N2CCCC(NCCCN3CCN(C)CC3)c3cc(Cl)ccc32)c(C)c1 (stereo not drawn) [Compound 17, N-(4-(7-chloro-5-((3-(4-methylpiperazin-1-yl)propyl)amino)-2,3,4,5-tetrahydro-1H-benzo[b]azepine-1-carbonyl)-3-methylphenyl)-2-methylbenzamide] |  | 7 ± 1 | 0.00233 | 350000 |  |  |  |  |  | 
5 | Cc1ccccc1C(=O)Nc1ccc(C(=O)N2CCCC(NCCCc3ccncc3)c3cc(Cl)ccc32)c(C)c1 (stereo not drawn) [Compound 5, N-(4-(7-chloro-5-((3-(pyridin-4-yl)propyl)amino)-2,3,4,5-tetrahydro-1H-benzo[b]azepine-1-carbonyl)-3-methylphenyl)-2-methylbenzamide] |  | 13 ± 1 | 0.00125 | 165000 |  |  | comparable to the affinity of Tolvaptan |  |  | 
6 | Cc1ccccc1C(=O)Nc1ccc(C(=O)N2CCCC(NCCC(=O)N3CCOCC3)c3cc(Cl)ccc32)c(C)c1 (stereo not drawn) [Compound 13, N-(4-(7-chloro-5-((3-morpholino-3-oxopropyl)amino)-2,3,4,5-tetrahydro-1H-benzo[b]azepine-1-carbonyl)-3-methylphenyl)-2-methylbenzamide] |  | 9 ± 1 | 0.00183 | 683000 |  |  | comparable to the affinity of Tolvaptan |  |  | 
7 | Cc1ccccc1C(=O)Nc1ccc(C(=O)N2CCCC(O)c3cc(Cl)ccc32)c(C)c1 (stereo not drawn) [Tolvaptan, tolvaptan, reference compound] |  |  |  |  | 183.7 | 15.80 |  | increased to more than three times the normal level | increased | 
8 | Cc1ccccc1C(=O)Nc1ccc(C(=O)N2CCCC(NCCN3CCOCC3)c3cc(Cl)ccc32)c(C)c1 (stereo not drawn) [Compound 4, N-(4-(7-chloro-5-((2-morpholinoethyl)amino)-2,3,4,5-tetrahydro-1H-benzo[b]azepine-1-carbonyl)-3-methylphenyl)-2-methylbenzamide] |  | 21 ± 2 | 0.000783 | 333000 |  |  | comparable to the affinity of Tolvaptan |  |  | longer residence time with receptor than Tolvaptan
9 | Cc1ccccc1C(=O)Nc1ccc(C(=O)N2CCCC(NCCCCCN3CCOCC3)c3cc(Cl)ccc32)c(C)c1 (stereo not drawn) [Compound 3, N-(4-(7-chloro-5-((5-morpholinopentyl)amino)-2,3,4,5-tetrahydro-1H-benzo[b]azepine-1-carbonyl)-3-methylphenyl)-2-methylbenzamide] |  | 14 ± 2 | 0.00118 | 105000 |  |  |  |  |  | 
10 | Cc1ccccc1C(=O)Nc1ccc(C(=O)N2CCCC(NCCCCN3CCOCC3)c3cc(Cl)ccc32)c(C)c1 (stereo not drawn) [Compound 2, N-(4-(7-chloro-5-((4-morpholinobutyl)amino)-2,3,4,5-tetrahydro-1H-benzo[b]azepine-1-carbonyl)-3-methylphenyl)-2-methylbenzamide] |  | 12 ± 2 | 0.00135 | 160000 |  |  |  |  |  | 
